Experimental data from PMC4018175 (Journal of Medicinal Chemistry, 2014).
Structures can show the parent of a compound that is named as a salt.

Key:
P2Y6R [1] = molecular target: T1, P2Y6R (Homo sapiens, UniProt Q15077); assay: Fluorescent ligand binding of 28 by flow cytometry; conditions: 100 nM for 30 min at 37 °C in the presence of 125 (100 μM)
P2Y6R [2] = molecular target: T1, P2Y6R; assay: Fluorescence microscopy of P2Y6R-expressing 1321N1 astrocytoma cells; type: cell-based; conditions: 1 μM, 30 min at 37 °C, in presence and absence of 118 (10 μM)

T1 sequence (Q15077 whole entry): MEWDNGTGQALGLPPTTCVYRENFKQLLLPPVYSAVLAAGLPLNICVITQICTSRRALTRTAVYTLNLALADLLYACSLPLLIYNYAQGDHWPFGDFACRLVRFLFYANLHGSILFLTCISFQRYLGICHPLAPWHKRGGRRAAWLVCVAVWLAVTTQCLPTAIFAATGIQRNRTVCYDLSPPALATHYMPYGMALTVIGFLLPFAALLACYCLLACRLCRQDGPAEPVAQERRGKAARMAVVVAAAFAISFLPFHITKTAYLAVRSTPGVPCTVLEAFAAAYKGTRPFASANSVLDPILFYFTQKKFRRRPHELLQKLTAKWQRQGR

O=C(CCCCCNC(=O)COc1ccc(/C=C/c2ccc3n2[B-](F)(F)[N+]2=C(c4cccs4)C=CC2=C3)cc1)NCCCn1cc(CCNC(=O)COc2ccc(CCCO/N=c3/ccn([C@@H]4O[C@H](COP(=O)(O)OP(=O)(O)OP(=O)(O)O)[C@@H](O)[C@H]4O)c(=O)[nH]3)cc2)nn1 [Compound 28, N^4-(3-((4-O-CH2CONH-(CH2)2(BODIPY-1H-1,2,3-Triazol-4-yl))phenyl)propyloxy)cytidine-5′-triphosphate Triethylammonium Salt]
Cell labeling by fluorescent ligand (FCM) (P2Y6R [1]): significant cell labeling
Labeling of cells expressing the receptor (fluorescence microscopy) (P2Y6R [2]): specifically labeled cells expressing the receptor
